Experiment [1] deals with vraSR expression (Pvra-lux reporter in strain 923). The experiment in a line: Validation of test strain: oxacillin induction of luminescence. The class given is cell-based, Staphylococcus aureus. To be noted: luminescence of 923 Pvra-lux, 2 hours.
Experiment [2] deals with strain 923. Particulars: strain 923, CLSI guidelines; cited from earlier work.
The test system of experiment [3] is strain 923. The experiment in a line: Oxacillin MIC of strain 923. In kind it is cell-based. To be noted: Staphylococcus aureus; strain 923, cultured in the 96-well format.
The next experiment has as its system 923 containing pPvra-lux. Briefly: Oxacillin MIC of test strain in 96-well format. The class given is cell-based, Staphylococcus aureus.
Another experiment deals with multiple strains of MRSA. The experiment in a line: MICs (minimal inhibitory concentrations) vs multiple strains of MRSA. In kind it is cell-based, Staphylococcus aureus. Particulars: no compound.
The subject of experiment [4] is vanA containing VRSA strain VRS1. Particulars: cited from earlier work.
The subject of experiment [5] is vancomycin intermediate resistant Staphylococcus aureus strain, VISA 2283. To be noted: cited from earlier work.
Experiment [6] deals with vanA containing VRSA strain VRS2. Particulars: cited from earlier work.
For experiment [7], the system named is hetero VISA isolate, hVISA 2275. To be noted: cited from earlier work.
A further experiment addresses VraR (Staphylococcus aureus, UniProt Q7A4R9). Briefly: biochemical. The class given is binding. To be noted: His-tagged VraR; NB = No Binding.
Experiment [8] has as its target PurC (unrelated protein, control) (Bacillus anthracis, UniProt Q81ZH5). The class given is binding. To be noted: read-out: KD PurC (control).
The target in experiment [9] is cytoplasmic domain of VraS (VraS-C) (Staphylococcus aureus, UniProt Q99SZ7). Briefly: biochemical. In kind it is binding.
Chain of cytoplasmic domain of VraS (VraS-C) (Q99SZ7 70-347): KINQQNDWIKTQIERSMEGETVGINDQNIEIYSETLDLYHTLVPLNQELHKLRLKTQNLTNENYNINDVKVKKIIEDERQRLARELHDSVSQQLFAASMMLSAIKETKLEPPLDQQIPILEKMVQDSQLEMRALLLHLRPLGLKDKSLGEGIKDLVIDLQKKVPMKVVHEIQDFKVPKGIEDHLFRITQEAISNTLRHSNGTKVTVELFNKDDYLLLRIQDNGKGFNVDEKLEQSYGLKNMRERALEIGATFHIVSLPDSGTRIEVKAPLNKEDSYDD

The values below come from patent US9675592B2, “Methods and compositions for bacteria infections” (priority 2013, dated 2017).

Structures are written as SMILES.

By MIC is commonly meant the lowest concentration that inhibits growth of the organism. In general, Kd refers to the free concentration of one partner at which half of the binding sites on the other are occupied at equilibrium, for simple one-to-one binding.

Chain of VraR (Q7A4R9 whole entry): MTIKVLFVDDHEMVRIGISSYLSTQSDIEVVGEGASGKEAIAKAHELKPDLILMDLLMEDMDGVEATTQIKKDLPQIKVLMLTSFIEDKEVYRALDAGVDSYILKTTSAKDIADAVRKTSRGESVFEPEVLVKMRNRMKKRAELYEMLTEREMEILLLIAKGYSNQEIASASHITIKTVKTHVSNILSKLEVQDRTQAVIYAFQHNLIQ
Chain of PurC (unrelated protein, control) (Q81ZH5 whole entry, looked up, the tested form may be a part): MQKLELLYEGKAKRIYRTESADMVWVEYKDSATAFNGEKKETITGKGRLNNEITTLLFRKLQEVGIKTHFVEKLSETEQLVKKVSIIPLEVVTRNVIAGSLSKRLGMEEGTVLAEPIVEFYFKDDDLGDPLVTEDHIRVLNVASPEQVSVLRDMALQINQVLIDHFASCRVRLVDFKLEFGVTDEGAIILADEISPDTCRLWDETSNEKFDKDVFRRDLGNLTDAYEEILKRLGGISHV

For the molecule `Cc1onc(-c2ccccc2)c1C(=O)N[C@@H]1C(=O)N2[C@@H]1SC(C)(C)[C@@H]2C(=O)O` [oxacillin, reference compound], in experiment [1], the “minimum concentration sufficient for maximal vraSR expression” value is 2 µg/mL. Also, the “24-h oxacillin MIC” value in the experiment on strain 923 [2] is 16 to 32 µg/mL. The MIC with strain 923 [3] is 8 µg/mL. For the same molecule, in the experiment on 923 containing pPvra-lux, the MIC of oxacillin is 5 µg/mL. Besides, the “Ox MIC alone” value with multiple strains of MRSA (isolate 923, SCCmec IV, ST 8) stood at 16 µg/mL; with multiple strains of MRSA (isolate 1176, SCCmec II, ST 231) it was 32 µg/mL; with multiple strains of MRSA (isolate 2169, SCCmec IV, ST 72), 16 µg/mL; with multiple strains of MRSA (isolate 8004-01, SCCmec III, ST 239) it was 256 µg/mL; in the experiment with multiple strains of MRSA (isolate 8010-01, SCCmec IV, ST 8), 16 µg/mL; with multiple strains of MRSA (isolate 8227-01, SCCmec IV, ST 87), 2 µg/mL. Further, the “Ox MIC alone” value stood at 256 µg/mL in the experiment with multiple strains of MRSA (isolate 11095, SCCmec II, ST 105); 16 µg/mL with multiple strains of MRSA (isolate 13113, SCCmec II, ST 5); 8 µg/mL in the experiment with multiple strains of MRSA (isolate 13354, SCCmec IV, ST 5); 32 µg/mL with multiple strains of MRSA (isolate 14315, SCCmec IV, ST 1); 8 µg/mL in the experiment with multiple strains of MRSA (isolate Q2461, SCCmec VT, ST 59).
As for `Cc1cc(/C=C/c2ccc3cc(N(C)C)ccc3[n+]2C)c(C)n1-c1ccccc1` [Pyr, Pyrvinium], the “fold decrease Van MIC” value in experiment [4] was 64 fold; in experiment [7] (hVISA 2275) it was 2 fold. For the same molecule, the “potentiation of vancomycin” value in [4] is reported as “fully potentiated”; in experiment [5] (VISA), “not”; in experiment [6], “fully potentiated”; in [7] (hVISA), “partially potentiated”. The “MIC compound (Clo, Pyr, Gos)” value was 2.24 µg/mL in experiment [4] (compound alone); 1.12 µg/mL in [6] (compound alone); 16 µg/mL in [7] (compound alone, hVISA 2275). Further, the Synergy category entry was “non syn” in [5] (VISA 2283); “synergistic (An FICi of ≦0.5 defines a synergistic interaction)” in experiment [6]; “partial (partially potentiated vancomycin (FIC i>0.5 and <1.0))” in [7] (hVISA 2275). The “MIC (in combination) Clo+, Pyr+, Gos+” value in [7] (MIC of the compound in combination with the indicated Van concentration, hVISA 2275) is 0.56 µg/mL. In addition, the “FICi V + compound” value in experiment [7] (hVISA 2275) was 0.54. Also, the “Van FIC” value in [7] (in combination with compound, hVISA 2275) is recorded as 0.50. Further, the “Clo FIC, Pyr FIC, Gos FIC” value in experiment [7] (in combination with vancomycin, hVISA 2275) is listed as 0.04. In experiment [7] (vancomycin MIC when used in combination with compound, hVISA 2275), the “MIC (in combination) Van+” value was 2 µg/mL. For the same molecule, the Kd at VraR is more than 100 µM; in experiment [8] it was more than 100 µM; in experiment [9] (new run with His-tagged VraS, NB = No Binding, read-out: KD VraS), 21.3 ± 3.6 µM. The “binding to VraS-C” value in [9] (SPR) is on record as “binds”. Further, the “RUmax VraS” value in [9] (new run with His-tagged VraS) is 46.5 ± 2.9.
